These results are taken from patent US20110071403A1, “FUNCTIONAL NEAR-INFRARED FLUORESCENCE LYMPHATIC MAPPING FOR DIAGNOSING, ACCESSING, MONITORING AND DIRECTING THERAPY OF LYMPHATIC DISORDERS” (BOARD OF REGENTS OF THE UNIVERSITY OF TEXAS SYSTEM, priority 2009, published 2011).

Where a SMILES comes first, the peptide text is derived from it. Bridges are numbered along the chain shown (N, C = ends). Where no end group is shown, it is not given here. The star is where a group is joined. IRDye800CW = CC1(C)C(/C=C/C2=C(Oc3ccc(S(=O)(=O)O)cc3)C(=C/C=C3/N(CCCCS(=O)(=O)O)c4ccc(S(=O)(=O)O)cc4C3(C)C)/CCC2)=[N+](CCCCCC(=O)*)c2ccc(S(=O)(=O)[O-])cc21; IRDye800 = IRDye800 fluorophore

Data set [1] deals with lymphatic vessels and nodes. Kind of data set: in vivo lymphatic imaging, dose escalation after intradermal injection at base of tail. Details: species or system C57BL/6 mice.
Method: (§2) Animal studies were conducted using shaved 6-7 week old female, C57BL/6 mice (Harlan, Charles River). […] Each mouse was injected intradermally at the base of the tail with 20 μL of 500 uM ICG or 20 μL of 100 μM dye for IRDye800, IRDy800-MSA and IRDye800-ABD in order to assess their performance in vivo. The injections were all made by the same investigator and the site was covered with sterile tape immediately prior to imaging to prevent camera saturation.
Animals were illuminated by a laser diode (100 mA, 80 mW for 785 nm, Sanyo; Richmond, Ind.) with the light source expanded to a circular area approximately 8 cm in diameter. Fluorescence emission was collected using an Electron Multiplying Charge Coupled Device (EMCCD) camera with a holographic notch-plus band-rejection filter (785-nm center wavelength for ICG) and a bandpass filter (830-nm center wavelength for ICG) placed prior to the lens to reject back-scattered and reflected excitation light. Fluorescence images were acquired with an integration time of 200 ms. For registration purposes, “white light” images were taken by removing the filters and acquiring images over 500 ms integration time. Up to 750 fluorescent images and 3 white light images were acquired immediately after injection on the left and right side of each animal. Statistical analyses of differences in fluorescent intensity were assessed by student t-test in which α=0.05. […] Images were processed using V++ software (Digital Optics; Auckland, New Zealand), and data was analyzed to determine in vivo fluorescent intensities in select regions of interest (ROI) using IMAGEJ (NIH, Bethesda, Md.) and MATLAB (The Mathworks). Statistical analysis was conducted using the student t-test with α=0.05.
In viva lymphatic imaging studies utilizing an escalating dose of IC was done.
For data set [2], the system named is lymphatics of arms and legs. The data set is described as follows: second human study: NIR fluorescence lymphatic imaging with intradermal ICG pre- and post-MLD, apparent lymph velocity and propulsion period. Conditions: intradermal ICG up to 400 μg; vitals 2 h, follow-up calls 24 and 48 h.
Source text: Twelve normal volunteers and 10 subjects clinically diagnosed with Grade I or II unilateral LE participated and provided informed consent. […] The control subjects consisted of 2 males and 10 females, aged 22-59 years. The LE subjects were all female, aged 18-68 years with half experiencing lower extremity LE and the other half upper extremity LE. The injection sites were cleaned with a surgical scrub, followed by alcohol. Immediately after intradermal injection of imaging contrast agent using a 27 gauge needle, NIR fluorescence images were simultaneously acquired from both the LE and contralateral limbs of LE subjects. For control subjects, bilateral arms were imaged simultaneously in 6 subjects, and bilateral legs were imaged in the other 6 subjects. MLD was performed 30 to 60 minutes after the start of imaging followed by another 30 to 60 minutes of imaging. Vital signs were monitored for 2 hours after fluorescent agent administration and follow-up phone calls to assess subjects' condition were made 24 and 48 hours later. […]
The location and movement of lymphatic fluid containing ICG was imaged simultaneously in both limbs using two custom-built fluorescence imaging systems.
The nature of data set [3]: optical characterization of NIR imaging agents (spectra, extinction coefficient, quantum yield, lifetime, relative brightness). Conditions: for Emission maximum / Excitation maximum: 1 μM solution; for Extinction Coefficient × 10^4: at 785 nm; for Lifetime: frequency domain method, 785/830 (ex/em), ICG as standard. Format: physicochemical. How it is done:
Fluorescence quantum yield was determined by the comparative method of Williams et al. 1983 (Williams, Winfield and Miller. Analyst 109, 1067, 1983) using the quantum yield of ICG (in water) at 785/830 nm (24) as a standard. Lifetime measurements were obtained using the frequency domain-method using ICG as a standard. The IC50 of IRDye800-ABD was determined using a competitive binding assay modified from Dennis et al. 2002 (ibid). Briefly, MAXISORP fluorescent plates (Nunc, Rochester, N.Y.) were coated with mouse serum albumin (Sigma St Louis, Mo.) and incubated overnight at 4 degrees. Plates were washed three times with PBS+0.05% Tween20 (Sigma St. Louis, Mo.) to remove unbound albumin and were then blocked with TBS in casein (Pierce Rockford, Ill.) for 1 hour at 25 degrees. Equal volumes of unlabeled and labeled peptide were combined in centrifuge tubes for five different concentrations (0.05-10 nM) of unlabeled ABD peptide. The resulting peptide solution was then plated on the albumin coated plate, covered, and incubated for 1-2 hours at 37 degrees. The plate was washed with PBS+0.05% Tween20 three times to remove unbound peptide and fluorescence was measured using the ODYSSEY fluorescent plate reader (LI-COR, Lincoln, Nebr.). The average and standard deviation of four IC-50 values were determined.
In addition, Table 1 lists the relative brightness of each compound relative to ICG which was computed by taking the ratio of ((extinction coefficient)×(quantum yield))/((extinction coefficient of ICG)×(quantum yield of ICG)). […] Spectra for ICG and the IRDye800 conjugates were determined.

For data set [4] the following is noted: cited from earlier work.
Data set [5] has as its system lymphatics of arms and legs. The data set is described as follows: first human study: NIR fluorescence lymphatic imaging with intradermal ICG, apparent lymph velocity and propulsion period in control and lymphedema subjects. Conditions: intradermal ICG up to 400 μg; vitals 2 h, follow-up calls 24 and 48 h.
For data set [6] the following is noted: taken up by the liver and secreted into the bile; cited from earlier work.
The target of data set [7] is mouse serum albumin (Mus musculus, UniProt P07724). Conditions: read-out: IC-50 of unconjugated ABD peptide for albumin; as reported by Dennis et al., 2002; cited from earlier work.
Chain of mouse serum albumin (Mus musculus, UniProt P07724) (P07724 25-608): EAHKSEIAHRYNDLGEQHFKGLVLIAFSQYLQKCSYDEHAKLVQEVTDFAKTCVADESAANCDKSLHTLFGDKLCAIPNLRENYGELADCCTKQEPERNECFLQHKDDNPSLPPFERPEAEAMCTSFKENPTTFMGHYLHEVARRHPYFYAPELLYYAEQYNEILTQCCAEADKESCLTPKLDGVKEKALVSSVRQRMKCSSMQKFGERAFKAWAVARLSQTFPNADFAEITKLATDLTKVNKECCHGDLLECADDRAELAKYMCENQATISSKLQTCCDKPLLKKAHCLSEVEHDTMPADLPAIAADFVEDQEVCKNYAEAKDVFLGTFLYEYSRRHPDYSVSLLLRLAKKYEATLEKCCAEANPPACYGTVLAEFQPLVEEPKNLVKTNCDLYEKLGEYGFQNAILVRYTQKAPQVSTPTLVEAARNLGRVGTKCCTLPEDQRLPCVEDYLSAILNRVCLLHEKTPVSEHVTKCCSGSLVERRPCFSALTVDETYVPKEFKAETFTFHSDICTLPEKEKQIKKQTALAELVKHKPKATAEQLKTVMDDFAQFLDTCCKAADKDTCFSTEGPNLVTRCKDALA
The test system of data set [8] is inguinal lymph node. Kind of data set: lymphatic clearance study, fluorescence intensity in inguinal lymph node over time.
Method: as §2
Animals were illuminated by a laser diode (100 mA, 80 mW for 785 nm, Sanyo; Richmond, Ind.) with the light source expanded to a circular area approximately 8 cm in diameter. Fluorescence emission was collected using an Electron Multiplying Charge Coupled Device (EMCCD) camera with a holographic notch-plus band-rejection filter (785-nm center wavelength for ICG) and a bandpass filter (830-nm center wavelength for ICG) placed prior to the lens to reject back-scattered and reflected excitation light. Fluorescence images were acquired with an integration time of 200 ms. […] Statistical analyses of differences in fluorescent intensity were assessed by student t-test in which α=0.05. […] Images were processed using V++ software (Digital Optics; Auckland, New Zealand), and data was analyzed to determine in vivo fluorescent intensities in select regions of interest (ROI) using IMAGEJ (NIH, Bethesda, Md.) and MATLAB (The Mathworks). […]
Data set [9] relates to lymphangiogenesis (α9β1). Kind of data set: […] plug (with/without HGF) mouse model of lymphangiogenesis, NIR fluorescence imaging. The settings on record: 24 hours after intradermal administration. Format: in vivo. The procedure:
FIG. 20: NIR fluorescent image of an animal model of lymphangiogenesis (top) with a […] plug impregnated with LEC stimulating factor HGF on the right with a control […] plug without HGF on the left. The animal image (top) is taken 24 hours after administration of IRDye800-[…] (SEQ ID NO: 2) showing agent uptake into the […] plug containing LEC stimulating factor HGF and little or no uptake into the […] plug without HGF. When the […] plugs were removed from the animal and imaged, they were then imaged for the presence of IRDye800-[…] (SEQ ID NO: 2).
(§1) This targeting approach can be used to detect the process of lymphangiogenesis in animal models in, for example, drug discovery programs focusing on cessation of tumor lymphangiogenesis (such is associated with cancer metastasis), or as a diagnostic to detect the lymphangiogenesis that occurs in metastatic cancer and other tymphovascular disorders. […] The induced lymphangiogenesis is clearly visualized by the increase in fluorescence 24 hours through […] after the administration of imaging conjugate, IRDye800-[…] […] (SEQ ID NO: 2) was injected intravenously and 24 hours later, NIR fluorescence imaging was conducted to assess increased update associated with those tissues that were the site of Oxazolone application and increased lymphatic vessel densities that are indicative of lymphangiogenesis.

The test system of data set [10] is lymphangiogenesis (α9β1). The data set is described as follows: Oxazolone-induced skin inflammation mouse model, NIR fluorescence imaging. Conditions: 24 hours after intravenous injection, right inflamed vs left untreated side. Format: in vivo. How it is done:
The NIR imaging was conducted with intradermal administration of ICG (as shown above in human studies) to image both the right and left side lymphatics. […] Increased vessel density, leakiness, and dilated vessels on the inflamed side as compared to the untreated side of the animal as evident from the lymphatic imaging as compared to the left, untreated side.
The right side of the animal which has greater lymphatic density as indicated by ICG imaging (as shown in FIG. 21) is also associated with increased IRDye800-[…] (SEQ ID NO: 2) fluorescence presumably owing to the stimulation of LECS in the process of lymphangiogenesis to produce α9β1 integrin.
This targeting approach can be used to detect the process of lymphangiogenesis in animal models in, for example, drug discovery programs focusing on cessation of tumor lymphangiogenesis (such is associated with cancer metastasis), or as a diagnostic to detect the lymphangiogenesis that occurs in metastatic cancer and other tymphovascular disorders. Lymphangiogenesis and the accompanying activation of LECS are known to be stimulated by vascular endothelial growth factor-C (VEGF-C) or hepatic growth factor (HGF). […] The induced lymphangiogenesis is clearly visualized by the increase in fluorescence 24 hours through […] after the administration of imaging conjugate, IRDye800-[…] […]

In data set [11] the target is T1, integrin α9β1 on LECs (Homo sapiens, UniProt P05556+Q13797).
T1 construct: LECS stimulated by VEGF-C to express α9β1 on the extracellular membrane; endogenous in cells; host or cells: lymphatic endothelial cells (LECs) incubated with VEGF-C
T1 sequence (Q13797 30-1035): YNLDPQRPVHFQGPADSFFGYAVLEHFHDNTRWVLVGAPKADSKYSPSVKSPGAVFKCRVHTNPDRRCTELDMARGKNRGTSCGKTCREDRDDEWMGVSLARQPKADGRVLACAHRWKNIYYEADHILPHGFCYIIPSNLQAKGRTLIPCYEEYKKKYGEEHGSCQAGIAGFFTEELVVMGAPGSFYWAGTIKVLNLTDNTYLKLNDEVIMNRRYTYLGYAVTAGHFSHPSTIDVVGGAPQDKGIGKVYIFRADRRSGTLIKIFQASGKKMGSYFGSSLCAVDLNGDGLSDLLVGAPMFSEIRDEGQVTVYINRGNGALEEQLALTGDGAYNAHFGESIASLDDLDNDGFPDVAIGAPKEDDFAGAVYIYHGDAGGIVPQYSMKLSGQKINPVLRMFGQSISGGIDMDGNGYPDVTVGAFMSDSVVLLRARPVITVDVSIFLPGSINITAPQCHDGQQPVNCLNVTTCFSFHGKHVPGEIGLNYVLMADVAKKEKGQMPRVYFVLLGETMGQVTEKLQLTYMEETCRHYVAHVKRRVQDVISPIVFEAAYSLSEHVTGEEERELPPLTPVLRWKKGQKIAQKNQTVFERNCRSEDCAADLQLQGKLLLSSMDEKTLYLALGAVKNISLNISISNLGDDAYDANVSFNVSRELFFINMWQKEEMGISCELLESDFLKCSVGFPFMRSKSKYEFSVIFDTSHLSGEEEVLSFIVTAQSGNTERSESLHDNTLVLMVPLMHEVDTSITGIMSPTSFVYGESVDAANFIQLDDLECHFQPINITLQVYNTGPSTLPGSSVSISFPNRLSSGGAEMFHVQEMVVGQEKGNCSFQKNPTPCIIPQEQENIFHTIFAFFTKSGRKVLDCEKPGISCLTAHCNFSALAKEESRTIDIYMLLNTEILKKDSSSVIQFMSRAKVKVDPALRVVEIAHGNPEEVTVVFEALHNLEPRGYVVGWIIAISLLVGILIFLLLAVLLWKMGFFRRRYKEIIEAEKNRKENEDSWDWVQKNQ
T1 sequence (P05556 21-798): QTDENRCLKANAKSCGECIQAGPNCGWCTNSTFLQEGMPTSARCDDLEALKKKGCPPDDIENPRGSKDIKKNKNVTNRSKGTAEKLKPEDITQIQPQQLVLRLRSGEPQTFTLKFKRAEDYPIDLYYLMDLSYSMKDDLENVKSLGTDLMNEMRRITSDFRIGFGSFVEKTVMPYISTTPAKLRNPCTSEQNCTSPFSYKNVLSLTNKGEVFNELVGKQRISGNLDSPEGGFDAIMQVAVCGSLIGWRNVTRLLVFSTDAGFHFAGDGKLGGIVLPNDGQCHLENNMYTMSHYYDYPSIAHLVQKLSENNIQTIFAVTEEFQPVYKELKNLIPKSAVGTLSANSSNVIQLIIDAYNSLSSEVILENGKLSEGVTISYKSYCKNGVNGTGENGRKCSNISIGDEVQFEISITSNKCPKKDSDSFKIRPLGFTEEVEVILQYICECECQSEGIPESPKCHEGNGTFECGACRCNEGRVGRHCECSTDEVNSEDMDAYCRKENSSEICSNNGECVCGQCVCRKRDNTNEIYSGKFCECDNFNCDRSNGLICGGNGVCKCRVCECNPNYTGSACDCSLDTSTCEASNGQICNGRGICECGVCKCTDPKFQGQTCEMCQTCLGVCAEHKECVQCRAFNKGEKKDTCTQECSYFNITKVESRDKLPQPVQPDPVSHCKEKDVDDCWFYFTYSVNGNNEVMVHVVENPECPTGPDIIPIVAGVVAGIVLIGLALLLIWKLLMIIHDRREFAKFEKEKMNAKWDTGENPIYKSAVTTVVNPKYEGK
The data set is described as follows: fluorescence microscopy of LECs stimulated by VEGF-C. Format: cell-based.
Source text: FIG. 19: Fluorescence microscopy of LECS stimulated by VEGF-C to express α9β1 on the extracellular membrane as stained by (from left to right, top) by (i) DAPI, a nuclear stain, (ii) IRDye800-[…] (SEQ ID NO: 2), the imaging conjugate that targets α9β1, and (iii) a fluorescently labeled antibody that targets the β1 portion of α9β1.
as §1, with “disorders. Lymphangiogenesis and the accompanying activation of LECS are known to be stimulated by vascular endothelial growth factor-C (VEGF-C) or hepatic growth factor (HGF). […] When VEGF-C is not present during incubation, α9β1 (over) expression and IRDye800-[…]” for “disorders.”

In data set [12] the target is T2, mouse serum albumin (mouse, UniProt P07724 25-608).
T2 construct: Bought protein; also called MSA
The data set is described as follows: competitive binding assay on plates coated with mouse serum albumin; unlabeled ABD peptide at 0.05-10 nM mixed with labeled peptide, fluorescence read-out; mean and SD of four IC-50 values.

Regarding `CC1(C)C(/C=C/C=C/C=C/C=C2\N(CCCCS(=O)(=O)O)c3ccc4ccccc4c3C2(C)C)=[N+](CCCCS(=O)(=O)[O-])c2ccc3ccccc3c21` [ICG, indocyanine green], in data set [1] (20 μL intradermal at base of tail, mice), the “concentration sufficient to clearly depict lymphatic architecture in vivo” value turned out to be 500 µM. In data set [1] (ICG at 500 μM), the “appearance of lymphatic vasculature” value is “brighter and more prominent”. The “appearance of lymphatic vessels and nodes” value in data set [1] (ICG at 20 and 100 uM) is “dim and difficult to discern”. In data set [2], the “adverse events associated with the imaging agent” value is listed as “No adverse events”. In [3], the Emission maximum was 799, the Excitation maximum is 785, the “Extinction Coefficient × 10^4” value is 8.60 +/− 0.35 and the Lifetime was 0.59 +/− 0.049. Also, the “Quantum Yield (ICG standard)” value in data set [4] (ICG in water at 785/830 nm, used as standard) is recorded as 0.016. For the same molecule, in [4] (background statement), the maximal absorption is given as 780 nm. Also, the “adverse events associated with the drug” value in [5] is reported as “No adverse events”. Further, the normal biological half-time in data set [6] is given as 2-4 min.
RLIEDICLPRWGCLWEDD [ABD peptide]: in [7], the IC50 was 5 nM.
For the molecule `CC[C@H](C)[C@H](NC(=O)[C@H](CC(C)C)NC(=O)[C@H](CCCNC(=N)N)NC(=O)CCCCCN1C(=CC=C2CCCC(C=CC3=[N+](CCCCS(=O)(=O)[O-])c4ccc(S(=O)(=O)O)cc4C3(C)C)=C2Oc2ccc(S(=O)(=O)O)cc2)C(C)(C)c2cc(S(=O)(=O)O)ccc21)C(=O)N[C@@H](CCC(=O)O)C(=O)N[C@@H](CC(=O)O)C(=O)N[C@H](C(=O)N[C@H]1CSSC[C@@H](C(=O)N[C@@H](CC(C)C)C(=O)N[C@@H](Cc2c[nH]c3ccccc23)C(=O)N[C@@H](CCC(=O)O)C(=O)N[C@@H](CC(=O)O)C(=O)N[C@@H](CC(=O)O)C(=O)O)NC(=O)CNC(=O)[C@H](Cc2c[nH]c3ccccc23)NC(=O)[C@H](CCCNC(=N)N)NC(=O)[C@@H]2CCCN2C(=O)[C@H](CC(C)C)NC1=O)[C@@H](C)CC` [IRDye800-ABD] (IRDye800CW-RLIEDICLPRWGCLWEDD-OH; disulfide 7-13; N-terminus and C-terminus assumed), in [3], the Emission maximum was determined as 803, the Excitation maximum amounted to 780, the “Extinction Coefficient × 10^4” value is 54.836 +/− 0.25 and the Lifetime was 0.92 +/− 0.057. Besides, the “Intensity relative to ICG” value in data set [3] ((extinction coefficient × quantum yield) ratio to ICG) is recorded as 25.9. The “Quantum Yield” value in data set [3] (at 785/830 (ex/em), comparative method with ICG as standard) was 0.0647 +/− 0.0007. The “lymphatic clearance from inguinal lymph node” value in [8] (0.5 to 50 min after injection) is “slowed clearance”. In addition, the “fluorescence intensity in inguinal node, initially” value in [8] (initial time after intradermal injection) was “started out with a lower intensity”.
On to “IRDye800-GGGPLAEIDGIELTY: IRDye800 conjugated to tenascin C derived integrin α9β1 binding peptide GGGPLAEIDGIELTY (SEQ ID NO: 2)”, for which, in data set [9], the “fluorescence of control MATRIGEL plug with no HGF” value was “did not show appreciable fluorescence” and the “fluorescence of resected MATRIGEL plug with HGF” value was “showed fluorescence”. Also, the “fluorescence in region of Oxazolone skin inflammation” value in [10] is reported as “increased fluorescence”. Also, the “binding to LECs incubated in VEGF-C” value in [11] (VEGF-C for 30 minutes, co-stain with antibody to β1) was “co-localized with the antibody to β1”. Besides, the “binding to LECs without VEGF-C” value in data set [11] (VEGF-C not present during incubation) was “not seen”.

B1: IRDye800-ABD (albumin binding domain peptide RLIEDICLPRWGCLWEDD conjugated to IRDye800CW) (peptide)
peptide: RLIEDICLPRWGCLWEDD
modifications: cysteine pairing not given here; also: IRDye800CW label attached via NHS ester, site not given here
notes: Made by adding a 1.75 times molar excess of IRDye800CW to the ABD peptide, then HPLC purified; also called IRDye800-ABD conjugate; ABD-IRDye800 conjugate
On to B1, for which the IC50 in [12] worked out at 1.19 nM.
